Reference: PubChem BioAssay AID1745844 (Carcinogenic Potency Database (CPDB), 2022)
Several values for one entry are separate records, joined by “and”; a condition that tells them apart may be missing. Equal entries are not always repeated. Activity calls are given as the source filed them. No rule for the calls is given here.

Test system: rodent lifetime carcinogenesis bioassay, tumor incidence TD50
Experiment: chronic cancer bioassays in animals – CPDB, compiled studies (AID 1745844)

CC/C(=C(/CC)c1ccc(O)cc1)c1ccc(O)cc1
TD50 (mouse, strain (C57BL/6 x BALB/c)F1, females, in feed, site: cervix, lesion: squamous-cell carcinoma, dosed 148 weeks, study length 161 weeks): 1.98 mg/kg/day
carcinogen call (mouse, strain (C57BL/6 x BALB/c)F1, females, in feed, site: mammary gland, lesion: adenocarcinoma, type B, dosed 148 weeks, study length 161 weeks): positive
TD50 (mouse, strain (C57BL/6 x BALB/c)F1, females, in feed, site: pituitary gland, lesion: adenocarcinoma, dosed 148 weeks, study length 161 weeks): 2.01 mg/kg/day
TD50 (mouse, strain (C57BL/6 x BALB/c)F1, females, in feed, site: pituitary gland, lesion: adenoma, dosed 148 weeks, study length 161 weeks): 0.0387 mg/kg/day
TD50 (mouse, strain (C57BL/6 x BALB/c)F1, males, in feed, site: pituitary gland, lesion: adenoma, dosed 150 weeks, study length 169 weeks): 0.0722 mg/kg/day
TD50 (mouse, strain (C57BL/6 x BALB/c)F1, males, in feed, site: testis, lesion: interstitial-cell tumor, dosed 150 weeks, study length 169 weeks): 0.0408 mg/kg/day
TD50 (mouse, strain BALB/cStCrlfC3Hf/Nctr, females, in feed, site: cervix, lesion: adenoacanthoma, dosed 132 weeks, study length 133 weeks): 1.28 mg/kg/day
TD50 (mouse, strain BALB/cStCrlfC3Hf/Nctr, females, in feed, site: cervix, lesion: squamous-cell carcinoma, dosed 132 weeks, study length 133 weeks): 0.311 mg/kg/day
TD50 (mouse, strain BALB/cStCrlfC3Hf/Nctr, females, in feed, site: mammary gland, lesion: adenoacanthoma, dosed 132 weeks, study length 133 weeks): 1.88 mg/kg/day
TD50 (mouse, strain BALB/cStCrlfC3Hf/Nctr, females, in feed, site: mammary gland, lesion: adenocarcinoma, type B, dosed 132 weeks, study length 133 weeks): 0.476 mg/kg/day
TD50 (mouse, strain BALB/cStCrlfC3Hf/Nctr, females, in feed, site: ovary, lesion: granulosa-cell tumor, dosed 132 weeks, study length 133 weeks): 0.166 mg/kg/day
TD50 (mouse, strain BALB/cStCrlfC3Hf/Nctr, females, in feed, site: pituitary gland, lesion: adenocarcinoma, dosed 132 weeks, study length 133 weeks): 5.1 mg/kg/day
TD50 (mouse, strain BALB/cStCrlfC3Hf/Nctr, females, in feed, site: pituitary gland, lesion: adenoma, dosed 132 weeks, study length 133 weeks): 0.2 mg/kg/day
TD50 (mouse, strain BALB/cStCrlfC3Hf/Nctr, females, in feed, site: uterus, lesion: adenocarcinoma, dosed 132 weeks, study length 133 weeks): 5.32 mg/kg/day
TD50 (mouse, strain BALB/cStCrlfC3Hf/Nctr, females, in feed, site: vagina, lesion: squamous-cell carcinoma, dosed 132 weeks, study length 133 weeks): 1.31 mg/kg/day
TD50 (mouse, strain BALB/cStCrlfC3Hf/Nctr, males, in feed, site: pituitary gland, lesion: adenoma, dosed 121 weeks, study length 126 weeks): 0.171 mg/kg/day
TD50 (mouse, strain BALB/cStCrlfC3Hf/Nctr, males, in feed, site: testis, lesion: interstitial-cell tumor, dosed 121 weeks, study length 126 weeks): 0.0215 mg/kg/day
TD50 (mouse, strain C3H (MTV+), females, in feed, site: mammary gland, lesion: adenocarcinoma, dosed 104 weeks, study length 104 weeks): 0.026 mg/kg/day
TD50 (mouse, strain C3H (MTV+), females, in feed, site: mammary gland, lesion: carcinoma, dosed 85 weeks, study length 85 weeks): 0.0292 mg/kg/day
TD50 (mouse, strain C3H/AnCum, males, in feed, site: mammary gland, lesion: carcinoma, dosed 104 weeks, study length 104 weeks): 0.0359 mg/kg/day and 0.0421 mg/kg/day and 0.0789 mg/kg/day
TD50 (mouse, strain C3H/HeJ (MTV+), females, in feed, site: mammary gland, lesion: adenocarcinoma, dosed 52 weeks, study length 52 weeks): 0.0825 mg/kg/day
TD50 (mouse, strain C3H/HeJ (MTV+), females, in feed, site: mammary gland, lesion: adenocarcinoma, dosed 104 weeks, study length 104 weeks): 14.2 mg/kg/day
TD50 (mouse, strain C3H/HeJ (MTV+), females, in feed, site: ovary, lesion: tubular adenoma, dosed 78 weeks, study length 78 weeks): 0.0222 mg/kg/day
TD50 (mouse, strain C3H/HeN-MTV-/Nctr (MTV-), females, in feed, site: all sites, lesion: mesothelioma, dosed 112 weeks, study length 112 weeks): 0.928 mg/kg/day
TD50 (mouse, strain C3H/HeN-MTV-/Nctr (MTV-), females, in feed, site: all sites, lesion: mesothelioma, dosed 123 weeks, study length 123 weeks): 0.487 mg/kg/day
TD50 (mouse, strain C3H/HeN-MTV-/Nctr (MTV-), females, in feed, site: all sites, lesion: mesothelioma, dosed 125 weeks, study length 125 weeks): 0.52 mg/kg/day
TD50 (mouse, strain C3H/HeN-MTV-/Nctr (MTV-), females, in feed, site: cervix uteri, lesion: adenocarcinoma, dosed 112 weeks, study length 112 weeks): 2.47 mg/kg/day
TD50 (mouse, strain C3H/HeN-MTV-/Nctr (MTV-), females, in feed, site: cervix uteri, lesion: adenocarcinoma, dosed 123 weeks, study length 123 weeks): 1.66 mg/kg/day
TD50 (mouse, strain C3H/HeN-MTV-/Nctr (MTV-), females, in feed, site: cervix uteri, lesion: adenocarcinoma, dosed 125 weeks, study length 125 weeks): 1.17 mg/kg/day
TD50 (mouse, strain C3H/HeN-MTV-/Nctr (MTV-), females, in feed, site: mammary gland, lesion: adenocarcinoma, type A, dosed 107 weeks, study length 107 weeks): 2.63 mg/kg/day
TD50 (mouse, strain C3H/HeN-MTV-/Nctr (MTV-), females, in feed, site: mammary gland, lesion: adenocarcinoma, type A, dosed 123 weeks, study length 123 weeks): 4.39 mg/kg/day
TD50 (mouse, strain C3H/HeN-MTV-/Nctr (MTV-), females, in feed, site: mammary gland, lesion: adenocarcinoma, type A, dosed 125 weeks, study length 125 weeks): 2.1 mg/kg/day
TD50 (mouse, strain C3H/HeN-MTV-/Nctr (MTV-), females, in feed, site: mammary gland, lesion: adenocarcinoma, type B, dosed 107 weeks, study length 107 weeks): 0.0302 mg/kg/day
TD50 (mouse, strain C3H/HeN-MTV-/Nctr (MTV-), females, in feed, site: mammary gland, lesion: adenocarcinoma, type B, dosed 112 weeks, study length 112 weeks): 0.0434 mg/kg/day
TD50 (mouse, strain C3H/HeN-MTV-/Nctr (MTV-), females, in feed, site: mammary gland, lesion: adenocarcinoma, type B, dosed 123 weeks, study length 123 weeks): 0.118 mg/kg/day
TD50 (mouse, strain C3H/HeN-MTV-/Nctr (MTV-), females, in feed, site: mammary gland, lesion: adenocarcinoma, type B, dosed 125 weeks, study length 125 weeks): 0.0956 mg/kg/day
TD50 (mouse, strain C3H/HeN-MTV-/Nctr (MTV-), females, in feed, site: mammary gland, lesion: several types, types named in the paper, dosed 107 weeks, study length 107 weeks): 0.0247 mg/kg/day
TD50 (mouse, strain C3H/HeN-MTV-/Nctr (MTV-), females, in feed, site: mammary gland, lesion: several types, types named in the paper, dosed 112 weeks, study length 112 weeks): 0.0427 mg/kg/day
TD50 (mouse, strain C3H/HeN-MTV-/Nctr (MTV-), females, in feed, site: mammary gland, lesion: several types, types named in the paper, dosed 123 weeks, study length 123 weeks): 0.115 mg/kg/day
TD50 (mouse, strain C3H/HeN-MTV-/Nctr (MTV-), females, in feed, site: mammary gland, lesion: several types, types named in the paper, dosed 125 weeks, study length 125 weeks): 0.0872 mg/kg/day
TD50 (mouse, strain C3H/HeN-MTV-/Nctr (MTV-), females, in feed, site: uterus, lesion: endometrial adenocarcinoma, dosed 112 weeks, study length 112 weeks): 2.05 mg/kg/day
TD50 (mouse, strain C3H/HeN-MTV-/Nctr (MTV-), females, in feed, site: uterus, lesion: endometrial adenocarcinoma, dosed 123 weeks, study length 123 weeks): 1.87 mg/kg/day
TD50 (mouse, strain C3H/HeN-MTV-/Nctr (MTV-), females, in feed, site: uterus, lesion: endometrial adenocarcinoma, dosed 125 weeks, study length 125 weeks): 1.71 mg/kg/day
TD50 (mouse, strain C3HeB/FeJ, females, in feed, site: mammary gland, lesion: adenocarcinoma, dosed 78 weeks, study length 78 weeks): 0.295 mg/kg/day
TD50 (mouse, strain C3HeB/FeJ, females, in feed, site: ovary, lesion: tubular adenoma, dosed 78 weeks, study length 78 weeks): 0.329 mg/kg/day
TD50 (mouse, strain C3HeB/FeJ, females, in feed, site: ovary, lesion: tubular adenoma, dosed 104 weeks, study length 104 weeks): 0.597 mg/kg/day
TD50 (mouse, strain C57BL/6, females, in feed, site: pituitary gland, lesion: adenoma, dosed 118 weeks, study length 143 weeks): 0.0259 mg/kg/day
carcinogen call (mouse, strain C57BL/6, females, in feed, site: thyroid gland, lesion: follicular-cell tumor, dosed 118 weeks, study length 143 weeks): positive
TD50 (mouse, strain C57BL/6, males, in feed, site: pituitary gland, lesion: adenocarcinoma, dosed 125 weeks, study length 153 weeks): 1.42 mg/kg/day
TD50 (mouse, strain C57BL/6, males, in feed, site: pituitary gland, lesion: adenoma, dosed 125 weeks, study length 153 weeks): 0.0176 mg/kg/day
TD50 (mouse, strain C57BL/6, males, in feed, site: testis, lesion: interstitial-cell tumor, dosed 125 weeks, study length 153 weeks): 0.257 mg/kg/day
TD50 (mouse, strain C57BL/6, males, in feed, site: thyroid gland, lesion: follicular-cell tumor, dosed 125 weeks, study length 153 weeks): 0.05 mg/kg/day
TD50 (mouse, strain Monohybrid cross offspring of B6CF1 (C57BL/6 x BALB/c), females, in feed, site: cervix, lesion: squamous-cell carcinoma, dosed 144 weeks, study length 153 weeks): 1.03 mg/kg/day
TD50 (mouse, strain Monohybrid cross offspring of B6CF1 (C57BL/6 x BALB/c), females, in feed, site: ovary, lesion: granulosa-cell tumor, dosed 144 weeks, study length 153 weeks): 1.74 mg/kg/day
TD50 (mouse, strain Monohybrid cross offspring of B6CF1 (C57BL/6 x BALB/c), females, in feed, site: pituitary gland, lesion: adenocarcinoma, dosed 144 weeks, study length 153 weeks): 17 mg/kg/day
TD50 (mouse, strain Monohybrid cross offspring of B6CF1 (C57BL/6 x BALB/c), females, in feed, site: pituitary gland, lesion: adenoma, dosed 144 weeks, study length 153 weeks): 0.0456 mg/kg/day
TD50 (mouse, strain Monohybrid cross offspring of B6CF1 (C57BL/6 x BALB/c), females, in feed, site: thyroid gland, lesion: follicular-cell adenoma, dosed 144 weeks, study length 153 weeks): 0.186 mg/kg/day
TD50 (mouse, strain Monohybrid cross offspring of B6CF1 (C57BL/6 x BALB/c), females, in feed, site: uterus, lesion: mesothelioma, dosed 144 weeks, study length 153 weeks): 1.72 mg/kg/day
TD50 (mouse, strain Monohybrid cross offspring of B6CF1 (C57BL/6 x BALB/c), males, in feed, site: pituitary gland, lesion: adenocarcinoma, dosed 147 weeks, study length 158 weeks): 4.36 mg/kg/day
TD50 (mouse, strain Monohybrid cross offspring of B6CF1 (C57BL/6 x BALB/c), males, in feed, site: pituitary gland, lesion: adenoma, dosed 147 weeks, study length 158 weeks): 0.0794 mg/kg/day
TD50 (mouse, strain Monohybrid cross offspring of B6CF1 (C57BL/6 x BALB/c), males, in feed, site: testis, lesion: interstitial-cell tumor, dosed 147 weeks, study length 158 weeks): 0.0661 mg/kg/day
TD50 (rat, strain Charles River CD (Sprague-Dawley), females, in feed, site: liver, lesion: hepatoma, dosed 91 weeks, study length 104 weeks): 0.13 mg/kg/day (inactive)
TD50 (rat, strain Charles River CD (Sprague-Dawley), males, in feed, site: adrenal gland, lesion: cortical adenoma, dosed 66 weeks, study length 66 weeks): 0.39 mg/kg/day
TD50 (rat, strain Charles River CD (Sprague-Dawley), males, in feed, site: liver, lesion: carcinoma, dosed 66 weeks, study length 66 weeks): 1.21 mg/kg/day
TD50 (rat, strain Charles River CD (Sprague-Dawley), males, in feed, site: liver, lesion: nodular hyperplasia, dosed 66 weeks, study length 66 weeks): 0.39 mg/kg/day
carcinogen call (rat, strain Charles River CD (Sprague-Dawley), males, in feed, site: liver, lesion: one or several types, types not named, dosed 91 weeks, study length 104 weeks): negative (inactive)
TD50 (rat, strain Charles River CD (Sprague-Dawley), males, in feed, site: pituitary gland, lesion: chromophobe adenoma, dosed 66 weeks, study length 66 weeks): 0.114 mg/kg/day
TD50 (rat, strain Sprague-Dawley, females, by gavage, site: liver, lesion: hepatocellular adenoma, dosed 52 weeks, study length 52 weeks): 16.3 mg/kg/day
TD50 (rat, strain Sprague-Dawley, females, by gavage, site: liver, lesion: hepatocellular carcinoma, dosed 52 weeks, study length 52 weeks): 4.8 mg/kg/day
TD50 (rat, strain Sprague-Dawley, females, by gavage, site: pituitary gland, lesion: adenoma, dosed 52 weeks, study length 52 weeks): 7.68 mg/kg/day
